Measurements from the OligoGym collection.
Bases are written 5' to 3'; sugars and linkages follow in the same order, as letters with counts (s phosphorothioate, o phosphodiester; PS: all linkages phosphorothioate). The collection does not say whether C is 5-methylated. l = locked nucleic acid (LNA); d = 2'-deoxy (DNA)

The sequences below were run against Tau (assay: rat primary cortical neurons, FLIPR, 25 uM ASO).

Compared with TGGATATAGTTAAGGC (sugars l3 d9 l4, PS), “CAAACCACTCTTATTCTTTA (sugars l4 d13 l3, PS)” is lower in calcium oscillation score: 106 % of control for the first, 68.5 % of control for the second.

First: CCTCCTGGTTTATGATGGAT (sugars l3 d14 l3, PS)
Second: CGACTTATCTATCCATC (sugars l4 d10 l3, PS)
The calcium oscillation score of the first is higher: 58.3 % of control for the first, 50.5 % of control for the second.

Going from “TGGGTGATATTGTCCAGGGA (sugars l3 d14 l3, PS)” to CTGTGCTTCAGGCCTT (sugars l3 d10 l3, PS), the calcium oscillation score rises from 0 % of control to 51 % of control.

Going from “GCGAGTCTACCATGTCGATG (sugars l3 d14 l3, PS)” to GATACATGCGTCCTTT (sugars l3 d10 l3, PS), the calcium oscillation score rises from 0 % of control to 110 % of control.

Compared with TGGCGACTTGTACACG (sugars l3 d10 l3, PS), “CAGACCATCAATTTCCC (sugars l2 d13 l2, PS)” is higher in calcium oscillation score: 70.6 % of control for the first, 75.7 % of control for the second.

Compared with “ATTCATTTTACTTTACTTTT (sugars l4 d12 l4, PS)”, “TTATTTCCAAATTCACTTTT (sugars llddlldddddddddldlll, PS)” is higher in calcium oscillation score: 88.6 % of control for the first, 123 % of control for the second.

First: TGGCCATCTTATGCTGACCA (sugars l3 d14 l3, PS)
Second: TCACAACCCAAGATTCCC (sugars l2 d14 l2, PS)
The calcium oscillation score of the first is lower: 29.4 % of control for the first, 69.5 % of control for the second.

Going from “AAGACCAAGCAGAGATAAAC (sugars l3 d14 l3, PS)” to ATTTTACTACTCTCTTT (sugars l4 d9 l4, PS), the calcium oscillation score rises from 16.7 % of control to 82 % of control.

Going from TGGATATAGTTAAGGC (sugars l2 d12 l2, PS) to “CCAATCTTCGACTGGACTCT (sugars l3 d14 l3, PS)”, the calcium oscillation score falls from 115 % of control to 22.6 % of control.

First: ACTTGGGTGGAGTACGGACC (sugars l3 d14 l3, PS)
Second: GTGGCGGTGACTGCGA (sugars l3 d10 l3, PS)
The calcium oscillation score of the first is lower: 0 % of control for the first, 62.6 % of control for the second.

Compared with “TTTACCCATCTTAATTCATT (sugars l4 d14 l2, PS)”, CAAGAGGCACAAGT (sugars l3 d8 l3, PS) is lower in calcium oscillation score: 78.1 % of control for the first, 36.2 % of control for the second.

Compared with CTACTATTTACTATGC (sugars l3 d9 l4, PS), “CCACCATACTTGACTTC (sugars l3 d12 l2, PS)” is higher in calcium oscillation score: 66.8 % of control for the first, 91.6 % of control for the second.

First: TTGAAGTCCCGAGCCAAAGC (sugars l3 d14 l3, PS)
Second: TGTCGATGCTGCCG (sugars l3 d8 l3, PS)
The calcium oscillation score of the first is lower: 0 % of control for the first, 52.2 % of control for the second.

Going from “TTCCACTACAAGCTCCAC (sugars l3 d13 l2, PS)” to ATTAACCGAACTGCGA (sugars l3 d10 l3, PS), the calcium oscillation score falls from 52 % of control to 10.9 % of control.

Going from “ACCTTGCTCAGGTCAACTGG (sugars l3 d14 l3, PS)” to CTCTGGTCAAGGCTTT (sugars l3 d10 l3, PS), the calcium oscillation score falls from 2.59 % of control to 0 % of control.

Compared with “ATTTCCAAATTCACTTTTAC (sugars llldldddddddddlddlll, PS)”, “CTTTATTTCCAAATTCAC (sugars l5 d9 l1 d1 l2, PS)” is higher in calcium oscillation score: 118 % of control for the first, 119 % of control for the second.

Going from “CTTTTTCTTGTTCTAACC (sugars l3 d11 l4, PS)” to “TGGATGTTGCCTAATGAGCC (sugars l3 d14 l3, PS)”, the calcium oscillation score falls from 62.3 % of control to 0 % of control.

Compared with AATTTAGTCACCATCA (sugars l4 d8 l4, PS), TAAGGCAAGGCCTATT (sugars l3 d10 l3, PS) is lower in calcium oscillation score: 62.1 % of control for the first, 27.2 % of control for the second.

Going from CTCCTAATTTTGCACT (sugars l4 d10 l2, PS) to “CCATTTTCCATATAATTT (sugars l4 d10 l4, PS)”, the calcium oscillation score rises from 44.2 % of control to 70.7 % of control.

Compared with TGGGTGATATTGTCCA (sugars l3 d10 l3, PS), “CATCAGCCTTCATCACA (sugars l4 d11 l2, PS)” is lower in calcium oscillation score: 92.6 % of control for the first, 91.8 % of control for the second.

Going from “CCCAATCTTCGACTGGACTC (sugars l3 d14 l3, PS)” to CAACATTTGCACTCTC (sugars l4 d8 l4, PS), the calcium oscillation score rises from 31.6 % of control to 67.7 % of control.

Compared with “TCTCTTAACTTTATTTTATT (sugars l4 d12 l4, PS)”, “TCCTCACTTTACACATTAA (sugars l4 d13 l2, PS)” is lower in calcium oscillation score: 84.9 % of control for the first, 62.5 % of control for the second.

Compared with TCCCAGCGTGATCT (sugars l3 d8 l3, PS), “TTAACTCATCAACACCTT (sugars l3 d11 l4, PS)” is higher in calcium oscillation score: 3.83 % of control for the first, 114 % of control for the second.

Compared with “GCATGCAGTTTATTCCTGGC (sugars l3 d14 l3, PS)”, GTTAGCCCTAAAGTCC (sugars l3 d10 l3, PS) is higher in calcium oscillation score: 4.03 % of control for the first, 110 % of control for the second.

Going from “CCACTCCATGTCAATCA (sugars l4 d11 l2, PS)” to “CTTCCATCACTTCGAACTCC (sugars l3 d14 l3, PS)”, the calcium oscillation score falls from 63.5 % of control to 27.1 % of control.

First: GGGCGAGTCTACCATG (sugars l3 d10 l3, PS)
Second: TTTTTCTCTCTTAACTTTAT (sugars l4 d12 l4, PS)
The calcium oscillation score of the first is lower: 16.3 % of control for the first, 93.2 % of control for the second.

First: CAGAATATTACACCAT (sugars l4 d8 l4, PS)
Second: TTGGAAAGATGAAATTTGCT (sugars l3 d14 l3, PS)
The calcium oscillation score of the first is higher: 102 % of control for the first, 1.45 % of control for the second.

Compared with “TTAATTATTAAATCTTCTCT (sugars l4 d12 l4, PS)”, “TCCACAAACCAACTCAACAT (sugars l2 d15 l3, PS)” is higher in calcium oscillation score: 60.1 % of control for the first, 75.2 % of control for the second.

Going from “CTAATTTAGTCACCATC (sugars l3 d10 l4, PS)” to TCAACTGGTTTGTAGA (sugars l3 d10 l3, PS), the calcium oscillation score rises from 83.3 % of control to 110 % of control.

Compared with “CCCATCAATTTGGAAAGATG (sugars l3 d14 l3, PS)”, “TGCAAGAGTCACTGCACTGC (sugars l3 d14 l3, PS)” is lower in calcium oscillation score: 58.1 % of control for the first, 23.8 % of control for the second.

Going from TATCATATCCTAAGCA (sugars l3 d9 l4, PS) to CATTCTATACTTCAGA (sugars l3 d9 l4, PS), the calcium oscillation score rises from 76 % of control to 79 % of control.

Compared with GCTTTCCAATTCCCCA (sugars l2 d12 l2, PS), CCATGATCTTAGGCTG (sugars l3 d10 l3, PS) is lower in calcium oscillation score: 101 % of control for the first, 17.6 % of control for the second.

Going from “CTTACTTTCTACTCAATTCC (sugars l2 d16 l2, PS)” to AATCCTGTGCTTCAG (sugars l3 d9 l3, PS), the calcium oscillation score falls from 60.6 % of control to 57.5 % of control.

First: CTCCAATTTTAAACTTAA (sugars l4 d10 l4, PS)
Second: CACTTTCCTAATTCCCAAAT (sugars l2 d16 l2, PS)
The calcium oscillation score of the first is higher: 69 % of control for the first, 62.1 % of control for the second.

Going from CACTCTAACATCTTAG (sugars l4 d8 l4, PS) to GTAGACTATTTGCAC (sugars l3 d9 l3, PS), the calcium oscillation score rises from 77.6 % of control to 95.2 % of control.

First: TTAACCGAACTGCGAG (sugars l3 d10 l3, PS)
Second: ACAAACATCTAAACACCTCA (sugars l2 d14 l4, PS)
The calcium oscillation score of the first is lower: 46.1 % of control for the first, 72.6 % of control for the second.

First: CATGCTTACACACCACAC (sugars l2 d13 l3, PS)
Second: TCTCAAATCAAACTAATAT (sugars l4 d11 l4, PS)
The calcium oscillation score of the first is higher: 73.5 % of control for the first, 58.1 % of control for the second.

First: AACCACTCTAACATCTT (sugars l4 d9 l4, PS)
Second: TATTTCCAAATTCACTTTTA (sugars l2 d16 l2, PS)
The calcium oscillation score of the first is lower: 88.3 % of control for the first, ≥ 200 % of control for the second.

Compared with ACCATCATACTCCAAG (sugars l4 d9 l3, PS), “CTCTTGACAGTCACTGCTGA (sugars l3 d14 l3, PS)” is lower in calcium oscillation score: 76 % of control for the first, 29.4 % of control for the second.

Compared with TTACACCACACTGTCG (sugars l3 d10 l3, PS), “AAAAGTCCATTCCCTCC (sugars l2 d12 l3, PS)” is higher in calcium oscillation score: 32.1 % of control for the first, 64 % of control for the second.

Compared with AACCAATTAACCGAAC (sugars l3 d10 l3, PS), GCTCTTCAAATCATTC (sugars l4 d8 l4, PS) is lower in calcium oscillation score: 138 % of control for the first, 58.3 % of control for the second.

Compared with “GTTAAGTGATTAACCAATTA (sugars l3 d14 l3, PS)”, “TTATTTCCAAATTCACTTTT (sugars l3 d14 l3, PS)” is higher in calcium oscillation score: 84.3 % of control for the first, ≥ 200 % of control for the second.

First: CCTTTTCTACTCTACTCTCA (sugars l2 d16 l2, PS)
Second: AATTTCAGAGCAAAGTGACC (sugars l3 d14 l3, PS)
The calcium oscillation score of the first is higher: 62.1 % of control for the first, 2.38 % of control for the second.

First: TATTTCCAAATTCACTTTTA (sugars lldlldddddddddlddlll, PS)
Second: CACCCTAAACCATGAT (sugars l3 d10 l3, PS)
The calcium oscillation score of the first is higher: 76.7 % of control for the first, 71.4 % of control for the second.

Compared with CTCCAATTTTAAACTTA (sugars l4 d9 l4, PS), CAATCCTAAACAATGC (sugars l4 d8 l4, PS) is lower in calcium oscillation score: 66.5 % of control for the first, 45.4 % of control for the second.

Going from “AATAGATCTTTCCCCTCC (sugars l2 d13 l3, PS)” to CCCTTTCAAACCAGCA (sugars l3 d11 l2, PS), the calcium oscillation score rises from 76.7 % of control to 91.8 % of control.

Going from “TTTCCCCATTTATCCTTC (sugars l2 d14 l2, PS)” to TTACAAAGTCCACTTTC (sugars l4 d9 l4, PS), the calcium oscillation score rises from 49.4 % of control to 69 % of control.

First: CCCCAGACCATCAATTT (sugars l2 d13 l2, PS)
Second: AAGTGATTAACCAATTAACC (sugars l3 d14 l3, PS)
The calcium oscillation score of the first is higher: 61.7 % of control for the first, 57 % of control for the second.

First: CTACATTTTTGTCTCAT (sugars l4 d10 l3, PS)
Second: GCCTCTAGCCACATGGACCC (sugars l3 d14 l3, PS)
The calcium oscillation score of the first is higher: 65.4 % of control for the first, 4.03 % of control for the second.

Going from “ATTATTCTTTTTTTTTCCAC (sugars l3 d14 l3, PS)” to “TCACTCATGCCTTAATC (sugars l4 d11 l2, PS)”, the calcium oscillation score rises from 15.2 % of control to 62 % of control.

Going from “CAACTGATTCCATCACC (sugars l4 d11 l2, PS)” to “CTGCTCAGCTAAGACCCTCA (sugars l3 d14 l3, PS)”, the calcium oscillation score falls from 87.8 % of control to 4.03 % of control.

Compared with “GGCCTGATCACAAACCCTGC (sugars l3 d14 l3, PS)”, “CTTACAACCAACACTGA (sugars l3 d10 l4, PS)” is higher in calcium oscillation score: 9.07 % of control for the first, 49.7 % of control for the second.

Compared with “CAAGAGTCACTGCACTGCAT (sugars l3 d14 l3, PS)”, “ATTTAATTTATTTTTTACTT (sugars l4 d12 l4, PS)” is higher in calcium oscillation score: 50 % of control for the first, 50.1 % of control for the second.

Compared with “ATTTCCAAATTCACTTTTAC (sugars ldlllddddddddddlldll, PS)”, “TTAAGTGATTAACCAATTAA (sugars l3 d14 l3, PS)” is lower in calcium oscillation score: 143 % of control for the first, 40.1 % of control for the second.
